pEC50: −log10 of the molar value.

The target of the assay is human GLP-1 receptor (Homo sapiens (Human), UniProt P43220). Conditions: read-out: Mean EC50; cAMP, HTRF detection, 30 min at 37° C., HEK-293 cells expressing cloned human GLP-1 receptor.
Chain of human GLP-1 receptor (P43220 24-463): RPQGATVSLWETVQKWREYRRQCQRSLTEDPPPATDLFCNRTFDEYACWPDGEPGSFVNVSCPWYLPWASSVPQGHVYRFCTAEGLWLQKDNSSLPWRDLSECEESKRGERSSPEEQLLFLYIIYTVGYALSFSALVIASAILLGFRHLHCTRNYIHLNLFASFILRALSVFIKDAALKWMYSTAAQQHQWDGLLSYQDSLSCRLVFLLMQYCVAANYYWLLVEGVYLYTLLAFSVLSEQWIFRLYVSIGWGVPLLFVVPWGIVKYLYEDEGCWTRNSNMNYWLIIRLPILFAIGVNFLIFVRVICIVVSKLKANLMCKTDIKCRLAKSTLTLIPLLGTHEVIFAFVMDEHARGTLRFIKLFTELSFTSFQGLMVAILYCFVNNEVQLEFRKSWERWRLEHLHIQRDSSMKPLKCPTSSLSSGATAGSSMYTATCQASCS
For orientation: pEC50 means −log10 of the EC50, conventionally taken in molar units. As to `Cc1nc(C(=O)N2Cc3cc4c(cc3C[C@H]2C(=O)N[C@@H](Cc2ccc(-c3ccnc(C)c3C)cc2)C(=O)O)OC[C@H](c2ccc(OCc3c(Cl)cccc3Cl)cc2)O4)c(C)o1` [Example 355, (S)-2-{[(3S,8S)-3-[4-(2,6-Dichloro-benzyloxy)-phenyl]-7-(2,5-dimethyl-oxazole-4-carbonyl)-2,3,6,7,8,9-hexahydro-[1,4]dioxino[2,3-g]isoquinoline-8-carbonyl]-amino}-3-[4-(2,3-dimethyl-pyridin-4-yl)phenyl]-propionic acid], the pEC50 is 7.35. With `Cc1nc(C(=O)N2Cc3cc4c(cc3C[C@H]2C(=O)N[C@@H](Cc2ccc(-c3ccnc(C)c3C)cc2)C(=O)O)OC[C@H](c2ccc(OCc3cc(F)ccc3F)cc2)O4)c(C)o1` [Example 356, (S)-2-{[(3S,8S)-3-[4-(2,5-Difluoro-benzyloxy)-phenyl]-7-(2,5-dimethyl-oxazole-4-carbonyl)-2,3,6,7,8,9-hexahydro-[1,4]dioxino[2,3-g]isoquinoline-8-carbonyl]-amino}-3-[4-(2,3-dimethyl-pyridin-4-yl)-phenyl]-propionic acid] the figure was 7.24; with `Cc1nc(C(=O)N2Cc3cc4c(cc3C[C@H]2C(=O)N[C@@H](Cc2ccc(-c3ccnc(C)c3C)cc2)C(=O)O)OC[C@H](c2ccc(OCc3cc(F)cc(F)c3)cc2)O4)c(C)o1` [Example 357, (S)-2-{[(3S,8S)-3-[4-(3,5-Difluoro-benzyloxy)-phenyl]-7-(2,5-dimethyl-oxazole-4-carbonyl)-2,3,6,7,8,9-hexahydro-[1,4]dioxino[2,3-g]isoquinoline-8-carbonyl]-amino}-3-[4-(2,3-dimethyl-pyridin-4-yl)-phenyl]propionic acid], 7.72. On to `Cc1nc(C(=O)N2Cc3cc4c(cc3C[C@H]2C(=O)N[C@@H](Cc2ccc(-c3ccnc(C)c3C)cc2)C(=O)O)OC[C@H](c2ccc(OCc3cccc(Cl)c3F)cc2)O4)c(C)o1` [Example 359, (S)-2-{[(3S,8S)-3-[4-(3-Chloro-2-fluoro-benzyloxy)-phenyl]-7-(2,5-dimethyl-oxazole-4-carbonyl)-2,3,6,7,8,9-hexahydro-[1,4]dioxino[2,3-g]isoquinoline-8-carbonyl]-amino}-3-[4-(2,3-dimethyl-pyridin-4-yl)phenyl]-propionic acid], for which the negative logarithm of the EC50 (pEC50) was 6.93.

For `Cc1nc(C(=O)N2Cc3cc4c(cc3C[C@H]2C(=O)N[C@@H](Cc2ccc(-c3ccnc(C)c3C)cc2)C(=O)O)OC[C@H](c2ccc(OCc3c(F)cccc3Cl)cc2)O4)c(C)o1` [Example 360, (S)-2-{[(3S,8S)-3-[4-(2-Chloro-6-fluoro-benzyloxy)-phenyl]-7-(2,5-dimethyl-oxazole-4-carbonyl)-2,3,6,7,8,9-hexahydro-[1,4]dioxino[2,3-g]isoquinoline-8-carbonyl]-amino}-3-[4-(2,3-dimethyl-pyridin-4-yl)phenyl]-propionic acid], the pEC50 was 6.53.

For `Cc1nc(C(=O)N2Cc3cc4c(cc3C[C@H]2C(=O)N[C@@H](Cc2ccc(-c3ccnc(C)c3C)cc2)C(=O)O)OC[C@H](c2ccc(OCc3cccc(Cl)c3Cl)cc2)O4)c(C)o1` [Example 361, (S)-2-{[(3S,8S)-3-[4-(2,3-Dichloro-benzyloxy)-phenyl]-7-(2,5-dimethyl-oxazole-4-carbonyl)-2,3,6,7,8,9-hexahydro-[1,4]dioxino[2,3-g]isoquinoline-8-carbonyl]-amino}-3-[4-(2,3-dimethyl-pyridin-4-yl)phenyl]-propionic acid], the pEC50 is 7.05. With `Cc1nc(C(=O)N2Cc3cc4c(cc3C[C@H]2C(=O)N[C@@H](Cc2ccc(-c3ccnc(C)c3C)cc2)C(=O)O)OC[C@H](c2ccc(OCc3cc(Cl)ccc3Cl)cc2)O4)c(C)o1` [Example 362, (S)-2-{[(3S,8S)-3-[4-(2,5-Dichloro-benzyloxy)-phenyl]-7-(2,5-dimethyl-oxazole-4-carbonyl)-2,3,6,7,8,9-hexahydro-[1,4]dioxino[2,3-g]isoquinoline-8-carbonyl]-amino}-3-[4-(2,3-dimethyl-pyridin-4-yl)-phenyl]-propionic acid] the figure was 7.92; with `Cc1nccc(-c2ccc(C[C@H](NC(=O)[C@@H]3Cc4cc5c(cc4CN3C(=O)N[C@H](C)c3ccccc3)O[C@@H](c3ccc(OCc4cc(F)cc(F)c4)cc3)CO5)C(=O)O)cc2)c1C` [Example 365, (S)-2-{[(3S,8S)-3-[4-(3,5-Difluoro-benzyloxy)-phenyl]-7-((R)-1-phenyl-ethylcarbamoyl)-2,3,6,7,8,9-hexahydro-[1,4]dioxino[2,3-g]isoquinoline-8-carbonyl]-amino}-3-[4-(2,3-dimethyl-pyridin-4-yl)-phenyl]-propionic acid], 7.02. With `Cc1nccc(-c2ccc(C[C@H](NC(=O)[C@@H]3Cc4cc5c(cc4CN3C(=O)N[C@H](C)c3ccccc3)O[C@@H](c3ccc(OCc4cccc(Cl)c4Cl)cc3)CO5)C(=O)O)cc2)c1C` [Example 369, (S)-2-{[(3S,8S)-3-[4-(2,3-Dichloro-benzyloxy)-phenyl]-7-((R)-1-phenyl-ethylcarbamoyl)-2,3,6,7,8,9-hexahydro-[1,4]dioxino[2,3-g]isoquinoline-8-carbonyl]-amino}-3-[4-(2,3-dimethyl-pyridin-4-yl)-phenyl]-propionic acid] the figure was 6.95. With `Cc1nccc(-c2ccc(C[C@H](NC(=O)[C@@H]3Cc4cc5c(cc4CN3C(=O)N[C@H](C)c3ccccc3)O[C@@H](c3ccc(OCc4cc(Cl)ccc4Cl)cc3)CO5)C(=O)O)cc2)c1C` [Example 370, (S)-2-{[(3S,8S)-3-[4-(2,5-Dichloro-benzyloxy)-phenyl]-7-((R)-1-phenyl-ethylcarbamoyl)-2,3,6,7,8,9-hexahydro-[1,4]dioxino[2,3-g]isoquinoline-8-carbonyl]-amino}-3-[4-(2,3-dimethyl-pyridin-4-yl)-phenyl]-propionic acid] the figure was 7.21; with `Cc1nc(C(=O)N2Cc3cc4c(cc3C[C@H]2C(=O)N[C@@H](Cc2ccc(-c3ccnc(C)c3C)cc2)C(=O)O)OC[C@H](c2ccc(OCCc3ccc(Cl)cc3)cc2)O4)c(C)o1` [Example 371, (S)-2-{[(3S,8S)-3-{4-[2-(4-Chloro-phenyl)-ethoxy]-phenyl}-7-(2,5-dimethyl-oxazole-4-carbonyl)-2,3,6,7,8,9-hexahydro-[1,4]dioxino[2,3-g]isoquinoline-8-carbonyl]-amino}-3-[4-(2,3-dimethyl-pyridin-4-yl)-phenyl]-propionic acid], 7.44; with `Cc1nc(C(=O)N2Cc3cc4c(cc3C[C@H]2C(=O)N[C@@H](Cc2ccc(-c3ccnc(C)c3C)cc2)C(=O)O)OC[C@H](c2ccc(O[C@H]3CC[C@H](C(C)(C)C)CC3)cc2)O4)c(C)o1` [Example 372, (S)-2-{[(3S,8S)-3-[4-(trans-4-tert-Butyl-cyclohexyloxy)-phenyl]-7-(2,5-dimethyl-oxazole-4-carbonyl)-2,3,6,7,8,9-hexahydro-[1,4]dioxino[2,3-g]isoquinoline-8-carbonyl]-amino}-3-[4-(2,3-dimethyl-pyridin-4-yl)-phenyl]-propionic acid], 7.19. On to `CC[C@H]1CC[C@H](Oc2ccc([C@H]3COc4cc5c(cc4O3)CN(C(=O)c3nc(C)oc3C)[C@H](C(=O)N[C@@H](Cc3ccc(-c4ccnc(C)c4C)cc3)C(=O)O)C5)cc2)CC1` [Example 373, (S)-2-({(3S,8S)-7-(2,5-Dimethyl-oxazole-4-carbonyl)-3-[-4-(trans-4-ethyl-cyclohexyloxy)-phenyl]-2,3,6,7,8,9-hexahydro-[1,4]dioxino[2,3-g]isoquinoline-8-carbonyl}-amino)-3-[4-(2,3-dimethyl-pyridin-4-yl)-phenyl]-propionic acid], for which the pEC50 was 6.73. With `Cc1nc(C(=O)N2Cc3cc4c(cc3C[C@H]2C(=O)N[C@@H](Cc2ccc(-c3ccnc(C)c3C)cc2)C(=O)O)OC[C@H](c2ccc(OC3CCC(Cl)CC3)cc2)O4)c(C)o1` (stereo partly drawn) [Example 375, (S)-2-{[(3S,8S)-3-[4-(4-Chloro-cyclohexyloxy)-phenyl]-7-(2,5-dimethyl-oxazole-4-carbonyl)-2,3,6,7,8,9-hexahydro-[1,4]dioxino[2,3-g]isoquinoline-8-carbonyl]-amino}-3-[4-(2,3-dimethyl-pyridin-4-yl)-phenyl]-propionic acid] the figure was 7.30; with `Cc1nc(C(=O)N2Cc3cc4c(cc3C[C@H]2C(=O)N[C@@H](Cc2ccc(-c3ccnc(C)c3C)cc2)C(=O)O)OC[C@H](c2ccc(OCc3cncc(Cl)c3)cc2)O4)c(C)o1` [Example 376, (S)-2-{[(3S,8S)-3-[4-(5-Chloro-pyridin-3-ylmethoxy)-phenyl]-7-(2,5-dimethyl-oxazole-4-carbonyl)-2,3,6,7,8,9-hexahydro-[1,4]dioxino[2,3-g]isoquinoline-8-carbonyl]-amino}-3-[4-(2,3-dimethyl-pyridin-4-yl)-phenyl]-propionic acid], 7.42; with `Cc1nc(C(=O)N2Cc3cc4c(cc3C[C@H]2C(=O)N[C@@H](Cc2ccc(-c3ccnc(C)c3C)cc2)C(=O)O)OC[C@H](c2ccc(OCCc3ccccc3)cc2)O4)c(C)o1` [Example 377, (S)-2-{[(3S,8S)-7-(2,5-Dimethyl-oxazole-4-carbonyl)-3-(4-phenethyloxy-phenyl)-2,3,6,7,8,9-hexahydro-[1,4]dioxino[2,3-g]isoquinoline-8-carbonyl]-amino}-3-[4-(2,3-dimethyl-pyridin-4-yl)-phenyl]-propionic acid], 7.31. With `Cc1nc(C(=O)N2Cc3cc4c(cc3C[C@H]2C(=O)N[C@@H](Cc2ccc(-c3ccnc(C)c3C)cc2)C(=O)O)OC[C@H](c2ccc(OCC3(c5ccc(Cl)cc5)CC3)cc2)O4)c(C)o1` [Example 378, (S)-2-{[(3S,8S)-3-{4-[1-(4-Chloro-phenyl)-cyclopropylmethoxy]-phenyl}-7-(2,5-dimethyl-oxazole-4-carbonyl)-2,3,6,7,8,9-hexahydro-[1,4]dioxino[2,3-g]isoquinoline-8-carbonyl]-amino}-3-[4-(2,3-dimethyl-pyridin-4-yl)-phenyl]-propionic acid] the figure was 6.55.

These data come from patent publication US9175003B2, “Substituted azoanthracene derivatives and intermediates for preparation thereof” (TransTech Pharma, LLC, priority 2009, dated 2015).
